Laboratory results taken from patent US12077503B2, “Substituted cyclic amides and their use as herbicides” (FMC CORPORATION, priority 2015, dated 2024).

Key:
Assay type in all cases: in vivo
[1] = system: velvetleaf (Abutilon theophrasti); experiment: Test G Pre-Emergence Protocol; details: Abutilon theophrasti, pre-emergence, 312 h, evaluated after 13 days; for pest or weed control at 15.625 g/ha: 15.625 g ai/ha; for pest or weed control at 15.625 g/ha / pest or weed control at 250 g/ha: read-out: Velvetleaf damage rating (100=total damage to plant; 0=no damage to plant); for pest or weed control at 62.5 g/ha: 62.5 g ai/ha, 100=total damage to plant, 0=no damage to plant, read-out: plant damage rating, Velvetleaf; for pest or weed control at 250 g/ha: 250 g ai/ha
How it was run: (§1)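 Scores are visual damage ratings from 0 (no damage) to 100 (total plant kill), taken 13 days after treatment. Compound was sprayed one day post-sowing at 15.625, 62.5 or 250 g/ha in 50:50 acetone/water with 0.5% Tween 20.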

[2] = system: ivy-leaved morning glory (Ipomoea hederacea); experiment: Test G Pre-Emergence Protocol; details: Ipomoea, pre-emergence, 312 h, evaluated after 13 days; for pest or weed control at 15.625 g/ha: 15.625 g ai/ha, read-out: Morning-glory, Ivy-leaved damage rating (100=total damage to plant; 0=no damage to plant); for pest or weed control at 62.5 g/ha: 62.5 g ai/ha, 100=total damage to plant, 0=no damage to plant, read-out: plant damage rating, Morningglory, Ivy-leaved; for pest or weed control at 250 g/ha: 250 g ai/ha, read-out: Morningglory, Ivy-leaved damage rating (100=total damage to plant; 0=no damage to plant)
How it was run: as §1

[3] = system: redroot pigweed (Amaranthus retroflexus); experiment: Test G Pre-Emergence Protocol; details: Amaranthus retroflexus, pre-emergence, 312 h, evaluated after 13 days; for pest or weed control at 15.625 g/ha: 15.625 g ai/ha; for pest or weed control at 15.625 g/ha / pest or weed control at 250 g/ha: read-out: Pigweed, Redroot damage rating (100=total damage to plant; 0=no damage to plant); for pest or weed control at 62.5 g/ha: 62.5 g ai/ha, 100=total damage to plant, 0=no damage to plant, read-out: plant damage rating, Pigweed, Redroot; for pest or weed control at 250 g/ha: 250 g ai/ha
How it was run: as §1

corn (Zea mays) [4] = experiment: Test G Pre-Emergence Protocol; details: Zea mays, pre-emergence, 312 h, evaluated after 13 days; for plant injury at 15.625 g/ha: 15.625 g ai/ha; for plant injury at 15.625 g/ha / plant injury at 250 g/ha: read-out: Corn damage rating (100=total damage to plant; 0=no damage to plant); for plant injury at 62.5 g/ha: 62.5 g ai/ha, 100=total damage to plant, 0=no damage to plant, read-out: plant damage rating, Corn; for plant injury at 250 g/ha: 250 g ai/ha
How it was run: as §1

[5] = system: giant foxtail (Setaria faberi); experiment: Test G Pre-Emergence Protocol; details: Setaria faberi, pre-emergence, 312 h, evaluated after 13 days; for pest or weed control at 15.625 g/ha: 15.625 g ai/ha; for pest or weed control at 15.625 g/ha / pest or weed control at 250 g/ha: read-out: Foxtail, Giant damage rating (100=total damage to plant; 0=no damage to plant); for pest or weed control at 62.5 g/ha: 62.5 g ai/ha, 100=total damage to plant, 0=no damage to plant, read-out: plant damage rating, Foxtail, Giant; for pest or weed control at 250 g/ha: 250 g ai/ha
How it was run: as §1

[6] = system: barnyardgrass (Echinochloa crus-galli); experiment: Test G Pre-Emergence Protocol; details: Echinochloa crus-galli, pre-emergence, 312 h, evaluated after 13 days; for pest or weed control at 15.625 g/ha: 15.625 g ai/ha, read-out: Barnyard grass damage rating (100=total damage to plant; 0=no damage to plant); for pest or weed control at 62.5 g/ha: 62.5 g ai/ha, 100=total damage to plant, 0=no damage to plant, read-out: plant damage rating, Barnyardgrass; for pest or weed control at 250 g/ha: 250 g ai/ha, read-out: Barnyardgrass damage rating (100=total damage to plant; 0=no damage to plant)
How it was run: as §1

[7] = system: velvetleaf (Abutilon theophrasti); experiment: Test G Post-Emergence Protocol; details: Abutilon theophrasti, post-emergence, 312 h; for pest or weed control at 15.625 g/ha: 15.625 g ai/ha, evaluated after 13 days (100=total damage to plant; 0=no damage to plant), read-out: Velvetleaf damage rating; for pest or weed control at 62.5 g/ha: 62.5 g ai/ha, read-out: Velvetleaf damage rating (100=total damage to plant; 0=no damage to plant); for pest or weed control at 62.5 g/ha / pest or weed control at 250 g/ha: evaluated after 13 days; for pest or weed control at 250 g/ha: 250 g ai/ha, read-out: damage to plant, Velvetleaf (100=total damage to plant; 0=no damage to plant)
How it was run: (§2)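 Scores run 0 (no damage) to 100 (total damage) and were taken 13 days after spraying. Plants had been raised in pots for 8 days under glasshouse control (24/16 °C, 14 h photoperiod, 65% humidity) and then treated at 15.625, 62.5 or 250 g/ha.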

[8] = system: ivy-leaved morning glory (Ipomoea hederacea); experiment: Test G Post-Emergence Protocol; details: Ipomoea, post-emergence, 312 h; for pest or weed control at 15.625 g/ha: 15.625 g ai/ha, evaluated after 13 days (100=total damage to plant; 0=no damage to plant), read-out: Morningglory, Ivy-leaved damage rating; for pest or weed control at 62.5 g/ha: 62.5 g ai/ha, read-out: Morningglory, Ivy-leaved damage rating (100=total damage to plant; 0=no damage to plant); for pest or weed control at 62.5 g/ha / pest or weed control at 250 g/ha: evaluated after 13 days; for pest or weed control at 250 g/ha: 250 g ai/ha, read-out: damage to plant, Morningglory, Ivy-leaved (100=total damage to plant; 0=no damage to plant)
How it was run: as §2

[9] = system: redroot pigweed (Amaranthus retroflexus); experiment: Test G Post-Emergence Protocol; details: Amaranthus retroflexus, post-emergence, 312 h; for pest or weed control at 15.625 g/ha: 15.625 g ai/ha, evaluated after 13 days (100=total damage to plant; 0=no damage to plant), read-out: Pigweed, Redroot damage rating; for pest or weed control at 62.5 g/ha: 62.5 g ai/ha, read-out: Pigweed, Redroot damage rating (100=total damage to plant; 0=no damage to plant); for pest or weed control at 62.5 g/ha / pest or weed control at 250 g/ha: evaluated after 13 days; for pest or weed control at 250 g/ha: 250 g ai/ha, read-out: damage to plant, Pigweed, Redroot (100=total damage to plant; 0=no damage to plant)
How it was run: as §2

corn (Zea mays) [10] = experiment: Test G Post-Emergence Protocol; details: Zea mays, post-emergence, 312 h; for plant injury at 15.625 g/ha: 15.625 g ai/ha, evaluated after 13 days (100=total damage to plant; 0=no damage to plant), read-out: Corn damage rating; for plant injury at 62.5 g/ha: 62.5 g ai/ha, read-out: Corn damage rating (100=total damage to plant; 0=no damage to plant); for plant injury at 62.5 g/ha / plant injury at 250 g/ha: evaluated after 13 days; for plant injury at 250 g/ha: 250 g ai/ha, read-out: damage to plant, Corn (100=total damage to plant; 0=no damage to plant)
How it was run: as §2

[11] = system: giant foxtail (Setaria faberi); experiment: Test G Post-Emergence Protocol; details: Setaria faberi, post-emergence, 312 h; for pest or weed control at 15.625 g/ha: 15.625 g ai/ha, evaluated after 13 days (100=total damage to plant; 0=no damage to plant), read-out: Foxtail, Giant damage rating; for pest or weed control at 62.5 g/ha: 62.5 g ai/ha, read-out: Foxtail, Giant damage rating (100=total damage to plant; 0=no damage to plant); for pest or weed control at 62.5 g/ha / pest or weed control at 250 g/ha: evaluated after 13 days; for pest or weed control at 250 g/ha: 250 g ai/ha, read-out: damage to plant, Foxtail, Giant (100=total damage to plant; 0=no damage to plant)
How it was run: as §2

[12] = system: barnyardgrass (Echinochloa crus-galli); experiment: Test G Post-Emergence Protocol; details: Echinochloa crus-galli, post-emergence, 312 h; for pest or weed control at 15.625 g/ha: 15.625 g ai/ha, evaluated after 13 days (100=total damage to plant; 0=no damage to plant), read-out: Barnyardgrass damage rating; for pest or weed control at 62.5 g/ha: 62.5 g ai/ha, read-out: Barnyardgrass damage rating (100=total damage to plant; 0=no damage to plant); for pest or weed control at 62.5 g/ha / pest or weed control at 250 g/ha: evaluated after 13 days; for pest or weed control at 250 g/ha: 250 g ai/ha, read-out: damage to plant, Barnyardgrass (100=total damage to plant; 0=no damage to plant)
How it was run: as §2

Cc1c(C#N)cccc1NC(=O)[C@H]1C(=O)N(C)C[C@@H]1c1ccc(C(F)(F)F)cc1 (racemic) [Compound 1444]
pest or weed control at 15.625 g/ha [1]: 0%
pest or weed control at 62.5 g/ha [1]: 20%
pest or weed control at 250 g/ha [1]: 20%
pest or weed control at 15.625 g/ha [2]: 10%
pest or weed control at 62.5 g/ha [2]: 0%
pest or weed control at 250 g/ha [2]: 40%
pest or weed control at 15.625 g/ha [3]: 0%
pest or weed control at 62.5 g/ha [3]: 40%
pest or weed control at 250 g/ha [3]: 50%
plant injury at 15.625 g/ha (corn (Zea mays) [4]): 0%
plant injury at 62.5 g/ha (corn (Zea mays) [4]): 0%
plant injury at 250 g/ha (corn (Zea mays) [4]): 50%
pest or weed control at 15.625 g/ha [5]: 50%
pest or weed control at 62.5 g/ha [5]: 80%
pest or weed control at 250 g/ha [5]: 80%
pest or weed control at 15.625 g/ha [6]: 10%
pest or weed control at 62.5 g/ha [6]: 30%
pest or weed control at 250 g/ha [6]: 60%
pest or weed control at 15.625 g/ha [7]: 0%
pest or weed control at 62.5 g/ha [7]: 0%
pest or weed control at 250 g/ha [7]: 0%
pest or weed control at 15.625 g/ha [8]: 0%
pest or weed control at 62.5 g/ha [8]: 10%
pest or weed control at 250 g/ha [8]: 10%
pest or weed control at 15.625 g/ha [9]: 10%
pest or weed control at 62.5 g/ha [9]: 10%
pest or weed control at 250 g/ha [9]: 20%
plant injury at 15.625 g/ha (corn (Zea mays) [10]): 10%
plant injury at 62.5 g/ha (corn (Zea mays) [10]): 10%
plant injury at 250 g/ha (corn (Zea mays) [10]): 10%
pest or weed control at 15.625 g/ha [11]: 0%
pest or weed control at 62.5 g/ha [11]: 60%
pest or weed control at 250 g/ha [11]: 60%
pest or weed control at 15.625 g/ha [12]: 0%
pest or weed control at 62.5 g/ha [12]: 10%
pest or weed control at 250 g/ha [12]: 20%

CN1C[C@H](c2ccc(C(F)(F)F)cc2)[C@@H](C(=O)Nc2ccccc2C(C)(C)C)C1=O (racemic) [Compound 1445]
pest or weed control at 15.625 g/ha [1]: 0%
pest or weed control at 62.5 g/ha [1]: 0%
pest or weed control at 250 g/ha [1]: 0%
pest or weed control at 15.625 g/ha [2]: 0%
pest or weed control at 62.5 g/ha [2]: 0%
pest or weed control at 250 g/ha [2]: 0%
pest or weed control at 15.625 g/ha [3]: 0%
pest or weed control at 62.5 g/ha [3]: 0%
pest or weed control at 250 g/ha [3]: 0%
plant injury at 15.625 g/ha (corn (Zea mays) [4]): 0%
plant injury at 62.5 g/ha (corn (Zea mays) [4]): 0%
plant injury at 250 g/ha (corn (Zea mays) [4]): 0%
pest or weed control at 15.625 g/ha [5]: 0%
pest or weed control at 62.5 g/ha [5]: 0%
pest or weed control at 250 g/ha [5]: 0%
pest or weed control at 15.625 g/ha [6]: 0%
pest or weed control at 62.5 g/ha [6]: 0%
pest or weed control at 250 g/ha [6]: 0%
pest or weed control at 15.625 g/ha [7]: 0%
pest or weed control at 62.5 g/ha [7]: 0%
pest or weed control at 250 g/ha [7]: 0%
pest or weed control at 15.625 g/ha [8]: 0%
pest or weed control at 62.5 g/ha [8]: 0%
pest or weed control at 250 g/ha [8]: 0%
pest or weed control at 15.625 g/ha [9]: 0%
pest or weed control at 62.5 g/ha [9]: 0%
pest or weed control at 250 g/ha [9]: 0%
plant injury at 15.625 g/ha (corn (Zea mays) [10]): 0%
plant injury at 62.5 g/ha (corn (Zea mays) [10]): 0%
plant injury at 250 g/ha (corn (Zea mays) [10]): 0%
pest or weed control at 15.625 g/ha [11]: 0%
pest or weed control at 62.5 g/ha [11]: 0%
pest or weed control at 250 g/ha [11]: 0%
pest or weed control at 15.625 g/ha [12]: 0%
pest or weed control at 62.5 g/ha [12]: 0%
pest or weed control at 250 g/ha [12]: 0%
